Assay results reported in patent publication US20060276452A1, “Use of azetidinecarboxamide derivatives in therapy” (VERNALIS RESEARCH LIMITED, priority 2003, published 2006).

How the values were obtained:
[1] = target: T1, recombinant human CB1 receptors (Homo sapiens, UniProt P21554); assay: Binding to recombinant human CB1 receptors ([3H]-SR-141716A displacement, HEK293 membranes); settings: [3H]-SR-141716A 1 nM; membranes of HEK293 cells expressing hCB1; Ki from IC50 by Cheng-Prusoff
T1 construct: expressed in transfected cells; host or cells: HEK293 cells
Experimental: The binding of compounds of Formula I to recombinant human CB1 receptors was determined in vitro by standard methods, with reference to the procedure described by Rinaldi-Carmona et al. (Rinaldi-Carmona, M., Pialot, F., Congy, C., Redon, E., Bart, F., Bachy, A., Breliere, J. C., Soubre, P., LeFur, G., Life Sci. 1996, 58(15), 1239-1247). Membranes were prepared from HEK293 cells expressing recombinant hCB1 receptors. Binding assays are performed in a total volume of 250 μL, containing [^3H]-SR-141716A (1 nM final concentration), membranes and test compound. Non-specific binding is determined using CP55,940 (10 μM). Serial dilutions are performed starting from test compounds as 10 mM solutions in DMSO. Compounds are tested over the concentration range 10^−10 M to 10^−5 M. Ki values are calculated from IC50 values using the Cheng-Prusoff equation.

T1 sequence (P21554 whole entry): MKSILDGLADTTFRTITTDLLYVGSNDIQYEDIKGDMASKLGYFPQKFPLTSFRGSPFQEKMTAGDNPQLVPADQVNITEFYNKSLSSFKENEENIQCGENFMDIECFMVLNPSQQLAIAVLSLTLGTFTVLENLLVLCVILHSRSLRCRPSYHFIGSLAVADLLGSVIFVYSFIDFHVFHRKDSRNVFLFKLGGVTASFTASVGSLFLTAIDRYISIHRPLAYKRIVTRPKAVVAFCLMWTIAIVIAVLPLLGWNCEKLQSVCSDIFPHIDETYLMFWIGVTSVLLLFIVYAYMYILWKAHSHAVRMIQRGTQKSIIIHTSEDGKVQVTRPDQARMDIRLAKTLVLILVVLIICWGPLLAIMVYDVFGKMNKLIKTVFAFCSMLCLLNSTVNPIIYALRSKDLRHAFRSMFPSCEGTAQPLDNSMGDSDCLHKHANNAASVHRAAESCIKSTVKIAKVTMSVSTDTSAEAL

Structure (SMILES)	Ki [1] [µM]	melting point [°C]
C=CCNC(=O)N1CC(OC(c2ccc(Cl)cc2)c2ccc(Cl)cc2)C1 [Example 6, 3-(Bis(4-chlorophenyl)methoxy)-N-(2-propenyl)azetidine-1-carboxamide]	0.285	–
NC(=O)N1CC(OCc2cccc(Cl)c2)C1 [Example 44, 3-((3-chlorophenyl)methoxy)-azetidine-1-carboxamide]	–	163 to 165.5
CCC(OC1CN(C(N)=O)C1)c1cccc(C(F)(F)F)c1 (stereo not shown) [Example 42]	–	110.5 to 112
C[C@@H](O)CNC(=O)N1CC(OCc2ccc(Cl)cc2)C1 [Example 36]	–	76 to 78
